COc1cc(C2Oc3cc(C4Oc5cc(O)cc(O)c5C(=O)C4O)ccc3OC2CO)ccc1O (stereo not given)
Settings	solubility (mole fraction)
in PEG-400, 298.15 K	0.24
in PEG-400, 303.15 K	0.26
in PEG-400, 313.15 K	0.29
in PEG-400, 323.15 K	0.34
in PEG-400, 333.15 K	0.38

solubility (mole fraction)
Settings	298.15 K	303.15 K	313.15 K	323.15 K	333.15 K
in ethanol	0.0167	0.0174	0.0193	0.0208	0.0227
in isopropanol	0.00448	0.00477	0.00524	0.00593	0.00662
in water	1.46e-05	1.68e-05	2.09e-05	2.54e-05	3.06e-05

Reference: BigSolDB 2.1
